Patent publication US9849136B2, “Thiazole and oxazole-substituted arylamides as P2X3 and P2X2/3 antagonists” (Roche Palo Alto LLC, priority 2006, dated 2017)

Assays:
human P2X2/3 receptor = biological target: T1, human P2X2/3 receptor (Homo sapiens, UniProt P56373+Q9UBL9); experiment: P2X2/3 FLIPR (Fluorometric Imaging Plate Reader) assay; type: cell-based; conditions: CHO-K1 cells transfected with human P2X2/3; agonist α,β-meATP 5 μM; Fluo-3 calcium fluorescence
T1 construct: expressed in transfected cells; host or cells: CHO-K1
T1 sequence (Q9UBL9 1-471): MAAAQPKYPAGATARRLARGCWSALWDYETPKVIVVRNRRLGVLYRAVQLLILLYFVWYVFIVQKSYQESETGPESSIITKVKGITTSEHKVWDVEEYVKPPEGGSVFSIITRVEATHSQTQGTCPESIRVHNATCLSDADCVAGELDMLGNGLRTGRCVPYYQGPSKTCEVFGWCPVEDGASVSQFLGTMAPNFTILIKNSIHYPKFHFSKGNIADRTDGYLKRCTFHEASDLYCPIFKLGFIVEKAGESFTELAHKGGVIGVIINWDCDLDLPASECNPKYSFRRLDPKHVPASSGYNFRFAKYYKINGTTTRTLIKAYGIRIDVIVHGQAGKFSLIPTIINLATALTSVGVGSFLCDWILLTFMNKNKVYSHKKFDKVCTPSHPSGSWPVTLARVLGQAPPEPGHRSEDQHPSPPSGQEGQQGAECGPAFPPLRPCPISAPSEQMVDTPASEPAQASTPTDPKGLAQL
T1 sequence (P56373 1-397): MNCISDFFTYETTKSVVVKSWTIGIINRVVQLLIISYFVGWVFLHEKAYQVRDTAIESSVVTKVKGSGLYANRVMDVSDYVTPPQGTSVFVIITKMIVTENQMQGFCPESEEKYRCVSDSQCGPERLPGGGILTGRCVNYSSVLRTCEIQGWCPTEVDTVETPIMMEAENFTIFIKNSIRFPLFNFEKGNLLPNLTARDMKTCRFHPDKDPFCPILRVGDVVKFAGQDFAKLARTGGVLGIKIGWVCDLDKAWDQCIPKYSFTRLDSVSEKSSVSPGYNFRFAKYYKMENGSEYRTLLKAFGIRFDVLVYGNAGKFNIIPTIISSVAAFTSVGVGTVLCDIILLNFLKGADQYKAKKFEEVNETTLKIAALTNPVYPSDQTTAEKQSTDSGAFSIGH
Method: (§1) CHO-Kl cells were transfected with cloned rat P2X3 or human P2X2/3 receptor subunits and passaged in flasks. 18-24 hours before the FLIPR experiment, cells were released from their flasks, centrifuged, and resuspended in nutrient medium at 2.5×10^5 cells/ml. The cells were aliquoted into black-walled 96-well plates at a density of 50,000 cells/well and incubated overnight in 5% CO2 at 37° C. On the day of the experiment, cells were washed in FLIPR buffer (calcium- and magnesium-free Hank's balanced salt solution, 10 mM HEPES, 2 mM CaCl2, 2.5 mM probenecid; FB). Each well received 100 μl FB and 100 μl of the fluorescent dye Fluo-3 AM [2 μM final conc.]. […]
(§2) Test compounds (dissolved in DMSO at 10 mM and serially diluted with FB) or vehicle were added to each well (25 μl of a 4× solution) and allowed to equilibrate for 20 minutes at room temperature. The plates were then placed in the FLIPR and a baseline fluorescence measurement (excitation at 488 nm and emission at 510-570 nm) was obtained for 10 seconds before a 100 μl/well agonist or vehicle addition. […] Fluorescence was measured for an additional 2 minutes at 1 second intervals after agonist addition. A final addition of ionomycin (5 μM, final concentration) was made to each well of the FLIPR test plate to establish cell viability and maximum fluorescence of dye-bound cytosolic calcium. […]

rat P2X3 receptor = biological target: T2, rat P2X3 receptor (Rattus norvegicus, UniProt P49654); experiment: P2X3 FLIPR (Fluorometric Imaging Plate Reader) assay; type: cell-based; conditions: CHO-K1 cells transfected with cloned rat P2X3; agonist α,β-meATP 1 μM; Fluo-3 calcium fluorescence
T2 construct: expressed in transfected cells; host or cells: CHO-K1
T2 sequence (P49654 1-397): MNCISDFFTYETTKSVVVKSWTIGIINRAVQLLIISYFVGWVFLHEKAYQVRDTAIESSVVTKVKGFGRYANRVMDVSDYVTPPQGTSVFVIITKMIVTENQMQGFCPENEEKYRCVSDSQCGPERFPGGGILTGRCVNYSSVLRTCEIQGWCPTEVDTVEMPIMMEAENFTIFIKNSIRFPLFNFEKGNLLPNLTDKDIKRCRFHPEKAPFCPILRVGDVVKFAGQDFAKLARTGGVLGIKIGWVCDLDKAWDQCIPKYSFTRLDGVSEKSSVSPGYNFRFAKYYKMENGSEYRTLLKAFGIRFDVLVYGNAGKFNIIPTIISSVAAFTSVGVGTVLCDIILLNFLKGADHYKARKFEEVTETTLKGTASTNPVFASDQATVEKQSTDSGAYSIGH
Method: as §1, §2

SMILES	pKi for the P2X2/3 receptor (human P2X2/3 receptor)	pIC50 for the P2X3 receptor (rat P2X3 receptor)
Cc1ccc(-c2cc(C(=O)N[C@H](C)CN3CCOCC3)cc(-c3scnc3C)c2)cc1 [Compound 43, (R)-4′-Methyl-5-(4-methyl-thiazol-5-yl)-biphenyl-3-carboxylic acid (1-methyl-2-morpholin-4-yl-ethyl)-amide]	approximately 7.30	–
Cc1ccc(-c2cc(C(=O)N[C@@H](C)CO)cc(-c3scnc3C)c2)cc1 [Compound 45, (S)-4′-Methyl-5-(4-methyl-thiazol-5-yl)-biphenyl-3-carboxylic acid (2-hydroxy-1-methyl-ethyl)-amide]	–	approximately 8.24
